3 compounds from ChEMBL document CHEMBL3217558 (Medchemcomm, 2012) can be followed below.

Assay [1] addresses Voltage-gated inwardly rectifying potassium channel KCNH2 (Homo sapiens, UniProt Q12809).
Assay [2] deals with Hepatocyte growth factor receptor (Homo sapiens, UniProt P08581).
Description: Inhibition of c-Met (unknown origin) using poly (Glu, Tyr) 4:1 as substrate after 60 mins by ELISA

Usually IC50 stands for the midpoint of a concentration-inhibition curve.

Voltage-gated inwardly rectifying potassium channel KCNH2, sequence (Q12809 whole entry): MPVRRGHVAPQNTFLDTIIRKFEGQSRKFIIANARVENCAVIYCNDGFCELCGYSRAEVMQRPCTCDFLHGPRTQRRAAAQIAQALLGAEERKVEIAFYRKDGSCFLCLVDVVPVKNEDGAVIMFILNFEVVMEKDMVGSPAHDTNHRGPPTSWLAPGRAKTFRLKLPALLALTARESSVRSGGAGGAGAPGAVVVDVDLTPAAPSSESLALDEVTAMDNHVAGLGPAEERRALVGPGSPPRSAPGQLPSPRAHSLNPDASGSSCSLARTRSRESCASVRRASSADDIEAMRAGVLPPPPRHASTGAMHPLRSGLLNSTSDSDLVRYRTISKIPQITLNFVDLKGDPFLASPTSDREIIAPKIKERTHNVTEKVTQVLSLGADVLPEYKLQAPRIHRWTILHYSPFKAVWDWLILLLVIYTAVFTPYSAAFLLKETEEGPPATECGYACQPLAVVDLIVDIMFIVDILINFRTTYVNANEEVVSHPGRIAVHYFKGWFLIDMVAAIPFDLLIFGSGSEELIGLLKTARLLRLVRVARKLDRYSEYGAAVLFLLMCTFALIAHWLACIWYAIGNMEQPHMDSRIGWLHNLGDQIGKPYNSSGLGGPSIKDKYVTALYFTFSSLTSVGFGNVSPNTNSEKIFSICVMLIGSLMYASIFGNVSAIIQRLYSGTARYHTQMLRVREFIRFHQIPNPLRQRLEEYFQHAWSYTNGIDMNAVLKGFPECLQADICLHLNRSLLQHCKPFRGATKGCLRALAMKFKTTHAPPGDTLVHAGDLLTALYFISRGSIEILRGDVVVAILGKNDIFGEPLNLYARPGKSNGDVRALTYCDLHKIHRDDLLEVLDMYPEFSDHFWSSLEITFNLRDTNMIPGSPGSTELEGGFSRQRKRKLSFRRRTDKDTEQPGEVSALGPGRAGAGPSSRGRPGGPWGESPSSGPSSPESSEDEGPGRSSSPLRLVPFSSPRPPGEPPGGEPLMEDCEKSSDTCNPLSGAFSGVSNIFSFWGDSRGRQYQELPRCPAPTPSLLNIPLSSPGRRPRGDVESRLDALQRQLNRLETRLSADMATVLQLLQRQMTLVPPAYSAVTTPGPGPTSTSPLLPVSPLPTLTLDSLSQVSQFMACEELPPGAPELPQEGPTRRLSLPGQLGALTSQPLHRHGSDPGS
Hepatocyte growth factor receptor, sequence (P08581 whole entry): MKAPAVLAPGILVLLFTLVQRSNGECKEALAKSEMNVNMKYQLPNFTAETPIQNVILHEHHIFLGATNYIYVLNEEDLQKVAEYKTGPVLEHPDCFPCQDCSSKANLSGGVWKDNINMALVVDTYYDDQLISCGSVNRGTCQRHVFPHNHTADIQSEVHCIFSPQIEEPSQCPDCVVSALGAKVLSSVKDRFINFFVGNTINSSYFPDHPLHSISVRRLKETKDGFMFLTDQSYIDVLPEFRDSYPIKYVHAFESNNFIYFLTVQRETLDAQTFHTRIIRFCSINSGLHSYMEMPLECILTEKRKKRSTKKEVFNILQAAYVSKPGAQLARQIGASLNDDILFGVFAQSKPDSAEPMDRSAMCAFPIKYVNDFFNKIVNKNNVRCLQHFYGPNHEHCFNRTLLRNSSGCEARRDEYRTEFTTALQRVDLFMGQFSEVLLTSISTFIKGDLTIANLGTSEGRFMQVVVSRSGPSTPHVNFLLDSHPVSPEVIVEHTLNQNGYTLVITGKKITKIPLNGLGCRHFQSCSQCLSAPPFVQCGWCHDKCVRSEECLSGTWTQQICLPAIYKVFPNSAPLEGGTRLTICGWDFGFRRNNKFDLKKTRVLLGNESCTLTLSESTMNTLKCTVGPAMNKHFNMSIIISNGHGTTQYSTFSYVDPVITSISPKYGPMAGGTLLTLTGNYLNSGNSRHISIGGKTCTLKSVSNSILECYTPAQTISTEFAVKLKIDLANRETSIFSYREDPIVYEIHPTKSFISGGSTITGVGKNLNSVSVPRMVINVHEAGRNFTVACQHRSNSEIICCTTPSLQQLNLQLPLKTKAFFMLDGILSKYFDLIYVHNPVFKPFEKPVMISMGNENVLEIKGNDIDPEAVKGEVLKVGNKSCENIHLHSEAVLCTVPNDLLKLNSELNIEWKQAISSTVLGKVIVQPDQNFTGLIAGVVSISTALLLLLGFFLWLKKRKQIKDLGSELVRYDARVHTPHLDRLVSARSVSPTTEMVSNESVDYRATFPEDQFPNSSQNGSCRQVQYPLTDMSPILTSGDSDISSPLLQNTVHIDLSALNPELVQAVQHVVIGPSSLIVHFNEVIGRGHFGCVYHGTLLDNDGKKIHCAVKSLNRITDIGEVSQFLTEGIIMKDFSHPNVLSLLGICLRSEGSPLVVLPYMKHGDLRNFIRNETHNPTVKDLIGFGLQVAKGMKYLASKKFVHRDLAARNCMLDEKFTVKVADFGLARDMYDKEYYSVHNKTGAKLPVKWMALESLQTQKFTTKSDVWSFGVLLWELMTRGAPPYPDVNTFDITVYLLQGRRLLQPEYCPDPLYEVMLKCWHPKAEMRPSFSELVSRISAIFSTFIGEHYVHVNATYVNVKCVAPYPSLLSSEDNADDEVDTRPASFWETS

With `CC(=O)c1cccc(CNc2cc(C(F)(F)F)cc3ncc(N4CCN(C)CC4)cc23)c1`, the 50% inhibitory concentration (IC50) in assay [1] stood at 93.6 µM.

Compound `CCNC(=O)Nc1cccc(CNc2cc(C(F)(F)F)cc3ncc(N4CCN(C)CC4)cc23)c1` displayed an IC50 in assay [1] of 81.7 µM.

Regarding `[2H]C(Nc1cc(C(F)(F)F)cc2ncc(N3CCN(C(C)=O)CC3)cc12)c1cccc([N+](=O)[O-])c1` (stereo not drawn), the midpoint of inhibition in assay [2], the IC50, lay at 0.0016 µM.
